Data: PubChem BioAssay (NCI)
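Compound exposure: 48 hours, 5 concentrations, 96-well plates. The concentration for full growth arrest is given as TGI.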

Experiments:
Experiment in all cases: growth of human tumour cells (NCI), 48 h
786-0 renal = tested on: 786-0 renal
A498 renal = tested on: A498 renal
A549 NSCLC = tested on: A549 NSCLC
ACHN renal = tested on: ACHN renal
BT-549 breast = tested on: BT-549 breast
CAKI-1 renal = tested on: CAKI-1 renal
CCRF-CEM leukemia = tested on: CCRF-CEM leukemia
COLO 205 colon = tested on: COLO 205 colon
DLD-1 colon = tested on: DLD-1 colon
DMS 114 small cell lung = tested on: DMS 114 small cell lung
DMS 273 small cell lung = tested on: DMS 273 small cell lung
DU-145 prostate = tested on: DU-145 prostate
EKVX NSCLC = tested on: EKVX NSCLC
HCT-116 colon = tested on: HCT-116 colon
HCT-15 colon = tested on: HCT-15 colon
HL-60(TB) leukemia = tested on: HL-60(TB) leukemia
HOP-18 NSCLC = tested on: HOP-18 NSCLC
HOP-62 NSCLC = tested on: HOP-62 NSCLC
HS 578T breast = tested on: HS 578T breast
HT29 colon = tested on: HT29 colon
IGROV1 ovarian = tested on: IGROV1 ovarian
K-562 leukemia = tested on: K-562 leukemia
KM12 colon = tested on: KM12 colon
KM20L2 colon = tested on: KM20L2 colon
LOX IMVI melanoma = tested on: LOX IMVI melanoma
LXFL 529 NSCLC = tested on: LXFL 529 NSCLC
M14 melanoma = tested on: M14 melanoma
M19-MEL melanoma = tested on: M19-MEL melanoma
MALME-3M melanoma = tested on: MALME-3M melanoma
MCF7 breast = tested on: MCF7 breast
MDA-MB-231 breast = tested on: MDA-MB-231 breast
MDA-MB-435 = tested on: MDA-MB-435
MOLT-4 leukemia = tested on: MOLT-4 leukemia
NCI-H226 lung = tested on: NCI-H226 lung
NCI-H23 lung = tested on: NCI-H23 lung
NCI-H460 lung = tested on: NCI-H460 lung
NCI-H522 lung = tested on: NCI-H522 lung
NCI/ADR-RES ovarian = tested on: NCI/ADR-RES ovarian
OVCAR-3 ovarian = tested on: OVCAR-3 ovarian
OVCAR-4 ovarian = tested on: OVCAR-4 ovarian
OVCAR-5 ovarian = tested on: OVCAR-5 ovarian
OVCAR-8 ovarian = tested on: OVCAR-8 ovarian
PC-3 prostate = tested on: PC-3 prostate
RPMI-8226 leukemia = tested on: RPMI-8226 leukemia
RXF-631 renal = tested on: RXF-631 renal
SF-268 CNS = tested on: SF-268 CNS
SF-539 CNS = tested on: SF-539 CNS
SK-MEL-2 melanoma = tested on: SK-MEL-2 melanoma
SK-MEL-5 melanoma = tested on: SK-MEL-5 melanoma
SK-OV-3 ovarian = tested on: SK-OV-3 ovarian
SN12C renal = tested on: SN12C renal
SNB-19 CNS = tested on: SNB-19 CNS
SNB-75 CNS = tested on: SNB-75 CNS
SNB-78 CNS = tested on: SNB-78 CNS
SR leukemia = tested on: SR leukemia
SW-620 colon = tested on: SW-620 colon
T-47D breast = tested on: T-47D breast
TK-10 renal = tested on: TK-10 renal
U251 CNS = tested on: U251 CNS
UACC-257 melanoma = tested on: UACC-257 melanoma
UACC-62 melanoma = tested on: UACC-62 melanoma
UO-31 renal = tested on: UO-31 renal
HCC-2998 colon = tested on: HCC-2998 colon
HOP-92 NSCLC = tested on: HOP-92 NSCLC
SF-295 CNS = tested on: SF-295 CNS
XF 498 CNS = tested on: XF 498 CNS

Measured: TGI

O=C(NC(=O)c1ccccc1[N+](=O)[O-])Nc1ccc(Oc2ncc(Cl)cn2)c([N+](=O)[O-])c1
3.31 µM: HT29 colon
> 7.67 µM: OVCAR-3 ovarian
3.15 µM: NCI/ADR-RES ovarian
> 95.7 µM: UO-31 renal
30.3 µM: A498 renal
> 28 µM: NCI-H23 lung
359 nM: DMS 114 small cell lung
63.1 µM: MDA-MB-231 breast
6.06 µM: COLO 205 colon
1680 nM: NCI-H522 lung
> 69.3 µM: SK-OV-3 ovarian
> 14.1 µM: SK-MEL-5 melanoma
> 66.3 µM: KM12 colon
8.38 µM: SF-539 CNS
383 nM: KM20L2 colon
313 nM: SNB-75 CNS
> 95.6 µM: HCT-15 colon
636 nM: HS 578T breast
> 88.6 µM: U251 CNS
> 71.8 µM: IGROV1 ovarian
1070 nM: NCI-H226 lung
197 nM: MDA-MB-435
1170 nM: HL-60(TB) leukemia
not listed: HCC-2998 colon | HOP-92 NSCLC | SF-295 CNS | XF 498 CNS
> 100 µM: all other assays above

COc1ccc(NC(=O)CC/C(CC(=O)c2ccco2)=N/NC(N)=S)cc1
> 100000 nM: DMS 114 small cell lung | HL-60(TB) leukemia | KM20L2 colon | NCI-H226 lung | NCI-H522 lung
not listed: BT-549 breast | DU-145 prostate | HS 578T breast | MCF7 breast | MDA-MB-231 breast | MDA-MB-435 | NCI/ADR-RES ovarian | PC-3 prostate | SK-MEL-5 melanoma | SNB-75 CNS | SR leukemia | T-47D breast
> 100 µM: all other assays above
